According to paper PMC6225165, “Design and Synthesis of Novel Dehydroepiandrosterone Analogues as Potent Antiproliferative Agents” (Molecules : A Journal of Synthetic Chemistry and Natural …, 2018):

Tests used:
Conditions in all cases: 48 h, MTT
[1] = tested on: human normal liver (L02) cells; assay: MTT assay on normal cell line L02; type: cell-based
MCF-7 = assay: MTT antiproliferative assay, MCF-7; type: cell-based, human
Procedure: (§1) The antiproliferative activity of the title compounds against the panel of six different human cancer cell lines, viz. lung (A549), cervix (HeLa), liver (HepG-2), liver (BEL7402), colorectal (HCT116), and breast (MCF-7) cell lines, was evaluated using a standard MTT-based colorimetric assay. All cell lines were obtained from the Key Laboratory of Natural Resources and Functional Molecules of the Changbai Mountain (Yanbian University) and maintained in Dulbecco’s modified Eagle’s medium (DMEM) and RPMI Media 1640 (RPMI1640), supplemented with 10% foetal bovine serum (FBS) at 37 °C in a humidified atmosphere containing 5% CO2.
(§2) Cells were plated in 96-well plates at appropriate densities to ensure exponential growth throughout the experimental period (9 × 10^3 cells per well), and then allowed to adhere for 24 h. Cells were then treated for 48 h with each compound. After 48 h of incubation, 10 μL of MTT solution were added to each well to a final concentration of 2 mg·mL^−1. Plates were then incubated for a further 4 h. After incubation, the MTT solution was removed and 150 μL of DMSO were added to each well for coloration. The plates were shaken vigorously for 10 min at room temperature to ensure complete solubilisation. The optometric density (OD) was read on a microplate reader (EL × 800, BioTek, Highland Park, Winooski, VT, USA) at 492 nm, and the data were subsequently analysed. The percentage of cell growth inhibition was calculated from the following equation:Inhibitory rate (%) = [1 − (ODtreated − ODblank)/(ODcontrol − ODblank)] × 100.
(§3) To obtain the antiproliferative activity of compounds 2a–2w, the compounds were selected in the same way with four serial concentrations (1, 10, 50 and 100 μM) of those compounds. The optometric density (OD) reading was then used to calculate the IC50.

A549 = assay: MTT antiproliferative assay, A549; type: cell-based, human
Procedure: as §1, §2, §3

HCT116 = assay: MTT antiproliferative assay, HCT116; type: cell-based, human
Procedure: as §1, §2, §3

Hela = assay: MTT antiproliferative assay, Hela; type: cell-based, human
Procedure: as §1, §2, §3

HepG-2 = assay: MTT antiproliferative assay, HepG-2; type: cell-based, human
Procedure: as §1, §2, §3

BEL7402 = assay: MTT antiproliferative assay, BEL7402; type: cell-based, human
Procedure: as §1, §2, §3

SMILES | % Growth Inhibition at 100 μM L02 ([1]; 100 μM, normal cells) | % Growth Inhibition at 100 μM MCF-7 (MCF-7; 100 μM) | % Growth Inhibition at 100 μM A549 (A549; 100 μM) | % Growth Inhibition at 100 μM HCT116 (HCT116; 100 μM) | % Growth Inhibition at 100 μM Hela (Hela; 100 μM) | % Growth Inhibition at 100 μM HepG-2 (HepG-2; 100 μM) | % Growth Inhibition at 100 μM BEL7402 (BEL7402; 100 μM) | other results
COc1ccccc1-n1cc(/C=C2\CC3C4CC=C5CC(O)CCC5(C)C4CCC3(C)C2=O)nn1 (stereo not shown) [Compound 2q, (E)-3-hydroxy-16-((1-(2-methoxyphenyl)-1H-1,2,3-triazol-4-yl)methylene)-10,13-dimethyl-1,3,4,7,8,9,10,11,12,13,15,16-dodecahydro-2H-cyclopenta[a]phenan-thren-17(14H)-one] | NA (NA: antiproliferative activity <5%) | 34.6% | 7.6% | 14.3% | NA (NA: antiproliferative activity <5%) | NA (NA: antiproliferative activity <5%) | 10.0% | 
COc1ccc(-n2cc(/C=C3\CC4C5CC=C6CC(O)CCC6(C)C5CCC4(C)C3=O)nn2)cc1OC (stereo not shown) [Compound 2t, (E)-16-((1-(3,4-dimethoxyphenyl)-1H-1,2,3-triazol-4-yl)methylene)-3-hydroxy-10,13-dimethyl-1,3,4,7,8,9,10,11,12,13,15,16-dodecahydro-2H-cyclopenta[a]phenan-thren-17(14H)-one] | 9.4% | NA (NA: antiproliferative activity <5%) | NA (NA: antiproliferative activity <5%) | NA (NA: antiproliferative activity <5%) | NA (NA: antiproliferative activity <5%) | NA (NA: antiproliferative activity <5%) | NA (NA: antiproliferative activity <5%) | 
CC12CCC3C(CC=C4CC(O)CCC43C)C1C/C(=C\c1cn(-c3ccccc3Br)nn1)C2=O (stereo not shown) [Compound 2i, (E)-16-((1-(2-bromophenyl)-1H-1,2,3-triazol-4-yl)methylene)-3-hydroxy-10,13-dimethyl-1,3,4,7,8,9,10,11,12,13,15,16-dodecahydro-2H-cyclopenta[a]phenan-thren-17(14H)-one] | NA (NA: antiproliferative activity <5%) | NA (NA: antiproliferative activity <5%) | NA (NA: antiproliferative activity <5%) | 20.2% | 17.0% | NA (NA: antiproliferative activity <5%) | NA (NA: antiproliferative activity <5%) | 
CC12CCC3C(CC=C4CC(O)CCC43C)C1C/C(=C\c1cn(-c3ccc([N+](=O)[O-])cc3)nn1)C2=O (stereo not drawn) [Compound 2v, (E)-3-hydroxy-10,13-dimethyl-16-((1-(4-nitrophenyl)-1H-1,2,3-triazol-4-yl)methylene)1,3,4,7,8,9,10,11,12,13,15,16-dodecahydro-2H-cyclopenta[α]phenan-thren-17(14H)-one] | 5.5% | NA (NA: antiproliferative activity <5%) | NA (NA: antiproliferative activity <5%) | 10.2% | NA (NA: antiproliferative activity <5%) | 12.4% | 13.2% | 
CC12CCC3C(CC=C4CC(O)CCC43C)C1C/C(=C\c1cn(-c3ccc(Br)cc3)nn1)C2=O (stereo not shown) [Compound 2k, (E)-16-((1-(4-bromophenyl)-1H-1,2,3-triazol-4-yl)methylene)-3-hydroxy-10,13-di-methyl-1,3,4,7,8,9,10,11,12,13,15,16-dodecahydro-2H-cyclopenta[a]phenan-thren-17(14H)-one] | 11.1% | 45.5% | 47.8% | NA (NA: antiproliferative activity <5%) | 30.7% | 66.4% | NA (NA: antiproliferative activity <5%) | IC50 ([1]; normal cell line): > 100 µM; IC50 (MCF-7): > 100 µM; IC50 (A549): > 100 µM; IC50 (HCT116): > 100 µM; IC50 (Hela): > 100 µM; IC50 (HepG-2): 37.1 µM; IC50 (BEL7402): > 100 µM
CC12CCC3C(CC=C4CC(O)CCC43C)C1C/C(=C\c1cn(-c3cccc(Br)c3)nn1)C2=O (stereo not shown) [Compound 2j, (E)-16-((1-(3-bromophenyl)-1H-1,2,3-triazol-4-yl)methylene)-3-hydroxy-10,13-dimethyl-1,3,4,7,8,9,10,11,12,13,15,16-dodecahydro-2H-cyclopenta[a]phenan-thren-17(14H)-one] | 43.8% | 42.1% | NA (NA: antiproliferative activity <5%) | 42.0% | 20.5% | 10.8% | 37.6% | 
COc1cccc(-n2cc(/C=C3\CC4C5CC=C6CC(O)CCC6(C)C5CCC4(C)C3=O)nn2)c1 (stereo not shown) [Compound 2r, (E)-3-hydroxy-16-((1-(3-methoxyphenyl)-1H-1,2,3-triazol-4-yl)methylene)-10,13-dimethyl-1,3,4,7,8,9,10,11,12,13,15,16-dodecahydro-2H-cyclopenta[a]phenan-thren-17(14H)-one] | 16.9% | NA (NA: antiproliferative activity <5%) | NA (NA: antiproliferative activity <5%) | NA (NA: antiproliferative activity <5%) | NA (NA: antiproliferative activity <5%) | NA (NA: antiproliferative activity <5%) | NA (NA: antiproliferative activity <5%) | 
Cc1cccc(-n2cc(/C=C3\CC4C5CC=C6CC(O)CCC6(C)C5CCC4(C)C3=O)nn2)c1 (stereo not shown) [Compound 2o, (E)-3-hydroxy-10,13-dimethyl-16-((1-m-tolyl-1H-1,2,3-triazol-4-yl)methylene)-1,3,4,7,8,9,10,11,12,13,15,16-dodecahydro-2H-cyclopenta[a]phenanthren-17(14H)-one] |  |  |  |  |  |  |  | inhibition at 100 µM ([1]; Homo sapiens, L02, 100 μM, normal cells, read-out: % Growth Inhibition at 100 μM L02): 40.1%; inhibition at 100 µM (MCF-7; Homo sapiens, MCF7, 100 μM, read-out: % Growth Inhibition at 100 μM MCF-7): 11.2%; inhibition at 100 µM (A549; Homo sapiens, A549, 100 μM, read-out: % Growth Inhibition at 100 μM A549): < 5%; inhibition at 100 µM (HCT116; Homo sapiens, HCT-116, 100 μM, read-out: % Growth Inhibition at 100 μM HCT116): 40.9%; inhibition at 100 µM (Hela; Homo sapiens, 100 μM, read-out: % Growth Inhibition at 100 μM Hela): 12.7%; inhibition at 100 µM (HepG-2; Homo sapiens, HepG2, 100 μM, read-out: % Growth Inhibition at 100 μM HepG-2): 12.8%; inhibition at 100 µM (BEL7402; Homo sapiens, Bel-7402, 100 μM, read-out: % Growth Inhibition at 100 μM BEL7402): 30.5%
O=c1[nH]cc(F)c(=O)[nH]1 [Compound 5-FU, 5-fluorouracil, reference compound] |  |  |  |  |  |  |  | IC50 (MCF-7; Homo sapiens, MCF7): 28.1 µM; IC50 (HCT116; Homo sapiens, HCT-116): 24.8 µM; IC50 (HepG-2; Homo sapiens, HepG2): 10.6 µM; IC50 (BEL7402; Homo sapiens, Bel-7402): 21.3 µM
